Publication PMC11374673, “Discovery of isoquinoline sulfonamides as allosteric gyrase inhibitors with activity against fluoroquinolone-resistant bacteria” (Nature Chemistry, 2024)
In brackets after ≈: the same amount, converted by molar mass. Several values for one entry are separate records, joined by “and”; a condition that tells them apart may be missing. Identical values can stand only once. Like-named read-outs stand apart in the source and are kept apart here. Values belong to the compound of their own block, whether it stands above or below them.

How the values were obtained:
E. coli W3110 [1] = assay: H-89 derivatives rescreen, 50 µM; format: cell-based; settings: Escherichia coli, H-89 derivative rescreen, highest 50 µM
Protocol: From glycerol stocks, E. coli W3110 was cultured on blood agar plates (PB5039A, Thermo Scientific) by overnight (18 ± 2 h) aerobic incubation at 37 °C. A single colony was transferred to tryptic soy broth (TSB, 02-200-500, Scharlab). The cultures were grown to exponential phase (OD600 of 0.5) at 37 °C. The bacterial suspensions were diluted 200-fold in cation-adjusted Mueller–Hinton broth (CAMHB) and 99 µl was added to a library of test compounds (1 µl 10 mM DMSO stock, per well in technical duplicates) in polypropylene 96-well microtitre plates to reach a volume of 100 µl and a final concentration of 100 µM for each test compound and a maximum of 1% DMSO. […] Screening hits were selected from the wells where no visible bacterial growth was observed, as compared with the inoculum controls containing 1% DMSO. The follow-up screen of H-89 derivatives was performed under similar conditions with a final concentration of 50 µM.

E. coli W3110 [2] = assay: MIC by broth microdilution; format: cell-based, Escherichia coli; settings: for MIC: broth microdilution, read-out: MIC E. coli W3110
Method in brief: (§1)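 Broth microdilution in CAMHB: twofold compound series inoculated with 100-fold-diluted bacteria from exponential growth (OD600 0.5, 37 °C); kanamycin 50 µg ml^−1 added for Keio collection strains. Overnight incubation, 37 °C, 600 r.p.m. shaking.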

HepG2 = assay: Cytotoxicity assay (MTT); format: cell-based, human; settings: for IC50: MTT, 24 h
HEK293T = assay: Cytotoxicity assay (MTT); format: cell-based, human; settings: for MTT data (raw reading) / MTT data (raw readout): HEK293T; for IC50: Homo sapiens, HEK-293T, 24 h, MTT
Method in brief: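 HEK293T cells, maintained at 37 °C and 7% CO2 in Dulbecco’s modified Eagle medium with GlutaMax, antibiotics and serum, were plated in clear 96-well plates in 100 µl medium containing 1% fetal bovine serum and left 24 h to attach. After 24 h compound exposure, MTT (0.40 mg ml^−1) was added for 2 h. Formazan was dissolved in 100 µl DMSO and absorbance measured at 570 nm. Background-corrected IC50 values came from variable-slope non-linear fits.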

K. pneumoniae ATCC 29665 = assay: MIC by broth microdilution; format: cell-based, Klebsiella pneumoniae; settings: read-out: MIC K. pneumoniae ATCC 29665
Method in brief: as §1

[3] = Klebsiella pneumoniae, ATCC29665, broth microdilution

MIC (E. coli W3110 [1]): > 50 µM
Compound: CS(=O)(=O)NCCNC/C=C/c1ccc(-c2cccnc2)cc1 [Compound 36]

MIC (E. coli W3110 [1]): > 50 µM
Compound: Clc1cnc(N2CCCC2)nc1Nc1n[nH]c2ccccc12 [Compound 26]

MIC (E. coli W3110 [2]; Escherichia coli, W3110, WT): > 50 µM
MIC (E. coli W3110 [2]; WT): > 50 µM
MIC (K. pneumoniae ATCC 29665; [3]): > 50 µM
MIC (K. pneumoniae ATCC 29665; broth microdilution): > 50 µM
Compound: O=S(=O)(NC[C@@H]1CC[C@@H](c2ccc(-c3ccc(F)nc3)cc2)N1)c1cccc2cnccc12 [Compound 98]
antimicrobial activity (E. coli W3110 [2]; relative to parent compound): completely inactive
MTT data (raw reading) (HepG2; HepG2, 0.023 uM, n = 1): 0.370 and 0.364 and 0.367
MTT data (raw reading) (HepG2; HepG2, 0.023 uM, n = 2): 0.490 and 0.437 and 0.362
MTT data (raw reading) (HepG2; HepG2, 0.068 uM, n = 1): 0.458 and 0.420 and 0.439
MTT data (raw reading) (HepG2; HepG2, 0.068 uM, n = 2): 0.379 and 0.325 and 0.398
MTT data (raw reading) (HepG2; HepG2, 0.21 uM, n = 1): 0.404 and 0.366 and 0.380
MTT data (raw reading) (HepG2; HepG2, 0.21 uM, n = 2): 0.373 and 0.308 and 0.356
MTT data (raw reading) (HepG2; HepG2, 0.62 uM, n = 1): 0.411 and 0.337 and 0.367
MTT data (raw reading) (HepG2; HepG2, 0.62 uM, n = 2): 0.419 and 0.335 and 0.320
MTT data (raw reading) (HepG2; HepG2, 1.85 uM, n = 1): 0.394 and 0.411 and 0.409
MTT data (raw reading) (HepG2; HepG2, 1.85 uM, n = 2): 0.343 and 0.331 and 0.334
MTT data (raw reading) (HepG2; HepG2, 5.6 uM, n = 1): 0.374 and 0.346 and 0.373
MTT data (raw reading) (HepG2; HepG2, 5.6 uM, n = 2): 0.307 and 0.313 and 0.306
MTT data (raw reading) (HepG2; HepG2, 16.7 uM, n = 1): 0.262 and 0.289 and 0.283
MTT data (raw reading) (HepG2; HepG2, 16.7 uM, n = 2): 0.250 and 0.271 and 0.247
MTT data (raw reading) (HepG2; HepG2, 50 uM, n = 1): 0.250 and 0.255 and 0.242
MTT data (raw reading) (HepG2; HepG2, 50 uM, n = 2): 0.199 and 0.179 and 0.169
IC50 (HepG2; Homo sapiens, HepG2, 24 h): 66 µM
IC50 (HepG2): > 50 µM
MTT data (raw reading) (HEK293T; 0.023 uM, n = 1): 1.493 and 1.422 and 1.498
MTT data (raw reading) (HEK293T; 0.023 uM, n = 2): 1.187 and 1.056 and 1.058
MTT data (raw reading) (HEK293T; 0.068 uM, n = 1): 1.655 and 1.492 and 1.570
MTT data (raw reading) (HEK293T; 0.068 uM, n = 2): 1.098 and 1.078 and 1.080
MTT data (raw reading) (HEK293T; 0.21 uM, n = 1): 1.461 and 1.519 and 1.638
MTT data (raw reading) (HEK293T; 0.21 uM, n = 2): 1.171 and 1.012 and 1.113
MTT data (raw reading) (HEK293T; 0.62 uM, n = 1): 1.554 and 1.331 and 1.351
MTT data (raw reading) (HEK293T; 0.62 uM, n = 2): 1.166 and 1.093 and 0.989
MTT data (raw reading) (HEK293T; 1.85 uM, n = 1): 1.381 and 1.338 and 1.408
MTT data (raw reading) (HEK293T; 1.85 uM, n = 2): 1.030 and 0.960 and 0.941
MTT data (raw reading) (HEK293T; 5.6 uM, n = 1): 1.292 and 1.223 and 1.327
MTT data (raw reading) (HEK293T; 5.6 uM, n = 2): 0.968 and 1.003 and 0.916
MTT data (raw reading) (HEK293T; 16.7 uM, n = 1): 1.160 and 1.126 and 1.075
MTT data (raw reading) (HEK293T; 16.7 uM, n = 2): 0.762 and 0.627 and 0.780
MTT data (raw reading) (HEK293T; 50 uM, n = 1): 0.797 and 0.734
MTT data (raw reading) (HEK293T; 50 uM, n = 2): 0.478 and 0.528
IC50 (HEK293T): 49 µM

MIC (E. coli W3110 [2]; Escherichia coli, W3110, WT): 6.25 µM (≈ 2.84 µg/mL)
MIC (K. pneumoniae ATCC 29665; [3]): 12.5 µM (≈ 5.68 µg/mL)
Compound: O=S(=O)(NCCNCc1ccc(-c2ccc(F)nc2)c(F)c1)c1cccc2cnccc12 [Compound 89]
MTT data (raw readout) (HepG2; HepG2, 0.023 uM, experiment n = 1, technical triplicates): 1.211 and 1.032 and 1.095
MTT data (raw readout) (HepG2; HepG2, 0.023 uM, experiment n = 2, technical triplicates): 0.940 and 0.892 and 0.823
MTT data (raw readout) (HepG2; HepG2, 0.068 uM, experiment n = 1, technical triplicates): 1.059 and 1.047 and 0.930
MTT data (raw readout) (HepG2; HepG2, 0.068 uM, experiment n = 2, technical triplicates): 0.912 and 0.982 and 0.829
MTT data (raw readout) (HepG2; HepG2, 0.21 uM, experiment n = 1, technical triplicates): 1.201 and 1.007 and 1.154
MTT data (raw readout) (HepG2; HepG2, 0.21 uM, experiment n = 2, technical triplicates): 0.862 and 0.878 and 0.892
MTT data (raw readout) (HepG2; HepG2, 0.62 uM, experiment n = 1, technical triplicates): 0.908 and 1.012 and 1.031
MTT data (raw readout) (HepG2; HepG2, 0.62 uM, experiment n = 2, technical triplicates): 0.861 and 0.862 and 0.848
MTT data (raw readout) (HepG2; HepG2, 1.85 uM, experiment n = 1, technical triplicates): 0.964 and 0.831 and 0.983
MTT data (raw readout) (HepG2; HepG2, 1.85 uM, experiment n = 2, technical triplicates): 0.918 and 0.866 and 0.845
MTT data (raw readout) (HepG2; HepG2, 5.6 uM, experiment n = 1, technical triplicates): 0.840 and 0.880 and 0.890
MTT data (raw readout) (HepG2; HepG2, 5.6 uM, experiment n = 2, technical triplicates): 0.798 and 0.838 and 0.803
IC50 (HepG2; Homo sapiens, HepG2, 24 h): 6.8 µM
MTT data (raw readout) (HEK293T; 0.023 uM, experiment n = 1, technical triplicates): 1.460 and 1.327 and 1.155
MTT data (raw readout) (HEK293T; 0.023 uM, experiment n = 2, technical triplicates): 1.578 and 1.464 and 1.567
MTT data (raw readout) (HEK293T; 0.068 uM, experiment n = 1, technical triplicates): 1.383 and 1.285 and 1.405
MTT data (raw readout) (HEK293T; 0.068 uM, experiment n = 2, technical triplicates): 1.657 and 1.634 and 1.543
MTT data (raw readout) (HEK293T; 0.21 uM, experiment n = 1, technical triplicates): 1.422 and 1.388 and 1.379
MTT data (raw readout) (HEK293T; 0.21 uM, experiment n = 2, technical triplicates): 1.511 and 1.515 and 1.445
MTT data (raw readout) (HEK293T; 0.62 uM, experiment n = 1, technical triplicates): 1.302 and 1.254 and 1.287
MTT data (raw readout) (HEK293T; 0.62 uM, experiment n = 2, technical triplicates): 1.280 and 1.339 and 1.417
MTT data (raw readout) (HEK293T; 1.85 uM, experiment n = 1, technical triplicates): 1.134 and 1.184 and 1.193
MTT data (raw readout) (HEK293T; 1.85 uM, experiment n = 2, technical triplicates): 1.303 and 1.294 and 1.289
MTT data (raw readout) (HEK293T; 5.6 uM, experiment n = 1, technical triplicates): 0.891 and 0.915 and 0.826
MTT data (raw readout) (HEK293T; 5.6 uM, experiment n = 2, technical triplicates): 0.987 and 0.926 and 0.889
MTT data (raw readout) (HEK293T; 16.7 uM, experiment n = 1, technical triplicates): 0.240 and 0.299 and 0.212
MTT data (raw readout) (HEK293T; 16.7 uM, experiment n = 2, technical triplicates): 0.285 and 0.310 and 0.251
IC50 (HEK293T): 8.9 µM

Continued, compound first:

Compound: O=C(CCc1ccc(-c2cnc3[nH]ccc3c2)cc1)NCCNS(=O)(=O)c1ccc(Cl)cc1 [Compound 13]
MIC (E. coli W3110 [1]): > 50 µM

Compound: Cc1ccc(S(=O)(=O)NCCNC(=O)CCc2ccc(-c3cnc4[nH]ccc4c3)cc2)cc1 [Compound 15]
MIC (E. coli W3110 [1]): > 50 µM

Compound: O=S(=O)(NCCNC/C=C/c1ccc(-c2ccccc2)cc1)c1cccc2cnccc12 [Compound 2]
MIC (E. coli W3110 [1]): > 50 µM

Compound: O=S(=O)(NCCNCCCc1ccc(-c2cnc3[nH]ccc3c2)cc1)c1ccccc1 [Compound 19]
MIC (E. coli W3110 [1]): > 50 µM

Compound: O=C(CCc1ccc(-c2cnc3[nH]ccc3c2)cc1)NCCNS(=O)(=O)c1cccc(Cl)c1 [Compound 24]
MIC (E. coli W3110 [1]): > 50 µM

Compound: O=S(=O)(NCCNC/C=C/c1ccc(-c2ccc3ccccc3c2)cc1)c1cccc2cnccc12 [Compound 3]
MIC (E. coli W3110 [1]): > 50 µM

Compound: O=S(=O)(NCCNC/C=C/c1ccc(-c2ccccc2)cc1)c1cccc2ccccc12 [Compound 4]
MIC (E. coli W3110 [1]): > 50 µM

Compound: O=S(=O)(NCCNC/C=C/c1ccc(-c2cccnc2)cc1)c1cccc2ccccc12 [Compound 6]
MIC (E. coli W3110 [1]): > 50 µM
